Legend:
[1] = parameters: species or system human; settings: in vivo
Protocol: (§1) A multicenter, open-label, non-randomized Phase 2 trial was conducted, wherein enrolled were patients with relapsed myeloma that was refractory to therapy. Patients were treated with 1.3 mg of bortezomib per square meter of body surface area, twice weekly for two weeks, followed by one week without treatment, for up to eight cycles (24 weeks).
(§2) Statistical analysis focused on the need to estimate response rates within specified limits of accuracy in order to determine if either of the two dose levels 1.0 or 1.3 mg/m^2/dose alone or in combination with dexamethasone are sufficiently efficacious to warrant further clinical study. This study was noncomparative in nature; therefore efficacy comparisons between the two doses of bortezomib were not performed. In addition, this study provided safety data that helped to characterize the potential toxicity of treatment at the two evaluated dose levels for up to eight cycles of therapy.
Over 80% of the 78 patients completed 2 or more cycles of treatment, 62% completed 4 or more cycles, and 27% completed 8 cycles.

[2] = system: relapsed/refractory multiple myeloma; test: Open-label Phase II study of bortezomib in relapsed, refractory myeloma: IRC confirmed response (Blade criteria); assay type: in vivo, human
Protocol: An Open-Label Phase II Study of Bortezomib in Patients with Myeloma Who Have Relapsed Following Front-Line Therapy and are Refractory to their Most Recent Therapy
as §1, §2
A formal statistical analysis plan was developed and finalized prior to database lock. The primary efficacy analyses were performed on the intent-to-treat (ITT) population. The primary efficacy analysis were performed on the rates of responders, where a responder was defined as a CR, PR, or MR using the criteria prospectively established in Table C. Two-sided 90% confidence limits on proportions of responders in each dose group were established, corresponding to a 95% one-sided lower limit.
Based on the criteria reported by Kraut et al., J. Clin. Oncol. 16(2): 589-592 (1998) and Blade et al., Br. J. Haematol. 102(5): 1115-1123 (1998). In patients with CR, bone marrow was analyzed using PCR for verification of CR at the molecular level.
The Independent Review Committee (IRC) evaluation of confirmed response to treatment with bortezomib alone is provided in Table D; further categorization of response for those patients who experienced partial remission is provided in Table E. This independent panel panel of three medical oncologists reviewed all data for 193 evaluable patients in the trial and assigned response using Blade criteria (Table C). […] An additional 46 (24%) of patients had evidence for stable disease (NC, no change) in response to bortezomib alone, which reflects an improvement in status for these patients who were progressing at the time of study entry. Based on the IRC assessment, 38 (20%) of the 193 patients had progressive disease and an additional 42 patients (22%) were considered not evaluable for response by the IRC. […] See Richardson PG, et al., New Eng. J. Med.; 348: 2609-17 (2003).

[3] = system: OVCAR-3 and RPMI8226 resistant sub-clones; test: Bortezomib resistant tumor cell lines generated by repeated dosing: resistance to bortezomib; assay type: cell-based; settings: sub-clones selected after dosing with 3-5 times the LD50; vs parental lines
Protocol: In order to better understand the specific mechanism(s) by which proteasome inhibitors exert their apoptotic effects, as well as to elucidate mechanisms by which those effects may be subverted, bortezomib resistant tumor cell lines were generated. […] The drug was then removed and surviving cells were allowed to recover for 24 to 72 hours. This process was then repeated for multiple rounds with the bortezomib dose doubled each time. After cells had been dosed with 3-5 times the LD50, several individual cell lines were sub-cloned from single cell colonies. […] This strategy was applied to both ovarian tumor cell lines (OVCAR-3) and myeloma tumor cell lines (RPMI8226) and multiple sub-clones were characterized. The resistant cell lines were then subject to gene expression profiling using the Affymetrix U133 microarray. A comparison of genes differentially expressed in sensitive parental (S) versus resistant sub-clones (R) highlighted several genes that were also identified in analysis of sensitive and resistant myeloma biopsies. The number identified in Table 8 corresponds to the marker number identification in Table 1. Such results not only highlight a potential relationship between expression of these genes and bortezomib sensitivity, but also support the validity of methods used to define response genes in clinical samples.

[4] = system: human tumor xenograft models; settings: cited from earlier work
[5] = IRC assessment, bortezomib alone, N = 193
[6] = IRC confirmed, bortezomib alone, N = 193

## CC(C)C[C@H](NC(=O)[C@H](Cc1ccccc1)NC(=O)c1cnccn1)B(O)O [bortezomib, N-pyrazinecarbonyl-L-phenylalanine-L-leucineboronic acid]
[1]
  tolerability of the dose: well tolerated
[2]; 202 patients enrolled, PS-341 alone, prior to added dexamethasone
  CR+PR rate: 27%
[2]; 202 patients enrolled, prior to any patients receiving added dexamethasone
  overall response rate to PS-341 alone: 35%
[2]; [5]
  Not Evaluable for response, number of patients: 42 patients
  Not Evaluable for response, percent of patients: 22%
[2]; IRC confirmed, bortezomib alone, 1.3 mg/m2 twice weekly, N = 193
  Complete + Partial + Minor Responses, number of patients: 67 patients
[2]; [6]
  Complete + Near Complete Remissions (NCR), number of patients: 19 patients
  Complete + Near Complete Remissions (NCR), percent of patients: 10%
  Complete + Partial + Minor Responses, percent of patients: 35%
  Complete + Partial Remissions, number of patients: 53 patients
  Complete + Partial Remissions, percent of patients: 27%
  Complete Remission (CR), number of patients: 19 patients
  Complete Remission (CR), percent of patients: 4%
  Minor Response (MR), number of patients: 14 patients
  Minor Response (MR), percent of patients: 5%
  No Change (stable disease), number of patients: 46 patients
  No Change (stable disease), percent of patients: 27%
  Partial Remission (PR), number of patients: 34 patients
  Partial Remission (PR), percent of patients: 23%
  Progressive Disease, number of patients: 38 patients
  Progressive Disease, percent of patients: 20%
[3]
  resistance to bortezomib of resistant sub-clones: 5-10 fold
[4]
  antitumor activity: demonstrated antitumor activity
